Measured values published in ChEMBL document CHEMBL1148124, “New lanostanoids, elfvingic acids A-H, from the fruit body of Elfvingia applanata” (J Nat Prod, 2002).
Values after ≈ are worked out from the molar mass of the structure shown.

What was measured:
[1] = Cytotoxicity against human KATO III cells after 72 hrs by MTT assay; type: functional, cell-based, KATO III cell
Ehrlich = assay: Cytotoxicity against mouse Ehrlich cells after 72 hrs by MTT assay; type: functional, cell-based

Question: What does the source list for C=C(C)[C@@H]1C[C@H]2O[C@@]23C(=CC(=O)[C@]2(C)[C@@H](/C(C)=C\C(O)CC(C)C(=O)O)C[C@@H](O)[C@]23C)[C@@]1(C)CCC(=O)OC (some centres undefined)?
Answer: IC50 [1]: 1.1 µg/mL (≈ 2.02 µM); IC50 (Ehrlich): 1.1 µg/mL (≈ 2.02 µM)

Question: Which results are given for CC(C)c1cccc(=O)c(O)c1 [HINOKITIOL]?
Answer: IC50 [1]: 0.6 µg/mL (≈ 3.65 µM); IC50 (Ehrlich): 0.6 µg/mL (≈ 3.65 µM)
